What all share (format): biochemical
The target of one assay is T1, hBuChE (Homo sapiens, UniProt P06276).
T1 construct: gene BCHE; BuChE isolated from human serum
In words: Ellman assay, % inhibition at […]. Particulars: read-out: hBuChE % Inh 100 μM. (In Ellman's method for cholinesterases, released thiocholine reacts with DTNB.)

Another assay concerns the target T2, hMAO-A (Homo sapiens, UniProt P21397).
T2 construct: gene MAOA; recombinant hMAO-A
T2 sequence (P21397 1-527): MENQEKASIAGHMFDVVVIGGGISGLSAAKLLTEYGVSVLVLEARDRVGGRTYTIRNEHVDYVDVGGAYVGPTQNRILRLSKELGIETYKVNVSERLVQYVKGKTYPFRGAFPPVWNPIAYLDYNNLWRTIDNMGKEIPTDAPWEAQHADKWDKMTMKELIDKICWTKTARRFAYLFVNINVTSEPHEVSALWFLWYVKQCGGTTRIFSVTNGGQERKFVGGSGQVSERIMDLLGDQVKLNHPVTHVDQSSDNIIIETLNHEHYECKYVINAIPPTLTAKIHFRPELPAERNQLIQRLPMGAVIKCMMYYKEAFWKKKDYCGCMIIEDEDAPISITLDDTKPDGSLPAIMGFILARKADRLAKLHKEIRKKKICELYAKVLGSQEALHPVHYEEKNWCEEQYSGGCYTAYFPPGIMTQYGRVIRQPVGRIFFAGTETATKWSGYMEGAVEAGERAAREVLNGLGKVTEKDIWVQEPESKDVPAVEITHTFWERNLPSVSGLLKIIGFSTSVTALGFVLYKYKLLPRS
As to the kind of experiment: Amplex Red MAO fluorimetric assay, % inhibition at […]. The settings on record: read-out: hMAO-A % Inh 100 μM.

The target in assay [1] is T3, hMAO-B (Homo sapiens, UniProt P27338).
T3 construct: gene MAOB; recombinant hMAO-B
T3 sequence (P27338 2-520): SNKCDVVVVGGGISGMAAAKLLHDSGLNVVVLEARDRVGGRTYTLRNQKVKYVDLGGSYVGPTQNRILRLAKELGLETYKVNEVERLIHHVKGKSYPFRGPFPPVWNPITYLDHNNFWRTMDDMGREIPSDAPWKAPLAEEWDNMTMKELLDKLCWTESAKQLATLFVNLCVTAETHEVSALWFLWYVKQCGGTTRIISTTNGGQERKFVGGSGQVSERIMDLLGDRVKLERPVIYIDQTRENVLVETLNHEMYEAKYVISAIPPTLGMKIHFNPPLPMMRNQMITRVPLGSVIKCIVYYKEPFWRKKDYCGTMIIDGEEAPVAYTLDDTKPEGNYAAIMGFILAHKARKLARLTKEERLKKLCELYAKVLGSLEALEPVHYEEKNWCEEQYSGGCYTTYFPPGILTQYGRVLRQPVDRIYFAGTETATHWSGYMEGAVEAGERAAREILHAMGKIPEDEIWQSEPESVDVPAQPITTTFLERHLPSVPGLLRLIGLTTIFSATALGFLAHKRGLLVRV
The description is as above. The settings on record: read-out: hMAO-B % Inh 100 μM.

Assay [2] concerns the target T3, hMAO-B. In words: Amplex Red MAO fluorimetric assay, recombinant enzyme, p-tyramine substrate.

T1 sequence (P06276 29-602): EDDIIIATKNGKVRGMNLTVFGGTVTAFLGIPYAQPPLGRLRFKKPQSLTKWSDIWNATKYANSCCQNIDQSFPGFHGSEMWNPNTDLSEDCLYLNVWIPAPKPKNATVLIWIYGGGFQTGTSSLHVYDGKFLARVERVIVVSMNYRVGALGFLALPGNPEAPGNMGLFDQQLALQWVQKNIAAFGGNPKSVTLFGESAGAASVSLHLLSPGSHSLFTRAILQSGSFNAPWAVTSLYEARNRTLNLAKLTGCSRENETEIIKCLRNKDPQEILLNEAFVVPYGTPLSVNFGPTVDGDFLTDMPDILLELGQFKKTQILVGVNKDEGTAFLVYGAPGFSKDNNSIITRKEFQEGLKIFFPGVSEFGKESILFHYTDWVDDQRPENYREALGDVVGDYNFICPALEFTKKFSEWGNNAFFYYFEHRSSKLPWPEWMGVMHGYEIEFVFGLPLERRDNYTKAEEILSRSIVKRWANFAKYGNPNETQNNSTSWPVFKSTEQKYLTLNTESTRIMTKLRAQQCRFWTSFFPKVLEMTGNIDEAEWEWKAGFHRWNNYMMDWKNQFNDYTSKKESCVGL

Turning to `O=C(/C=C/c1c(O)cc(O)cc1O)CC(=O)/C=C/c1cc2cc(O)c(O)cc2oc1=O` [compound 15, 6,7-Dihydroxy-3-(7-(2′,4′,6′-trihydroxyphenyl)-3,5-dioxohepta-1,6-dien-1-yl)coumarin], the inhibition at 100 µM on hBuChE is 50.9 ± 3.41%. For `O=C(/C=C(O)/C=C/c1cc(O)c(O)cc1O)/C=C/c1cc2ccc(O)c(O)c2oc1=O` [compound 12, 7,8-Dihydroxy-3-(7-(2′,4′,5′-trihydroxyphenyl)-3,5-dioxohepta-1,6-dien-1-yl)coumarin], the inhibition at 100 µM at hMAO-A was 60.9 ± 4.09%. In the case of `O=C(/C=C(O)/C=C/c1cc(O)c(O)c(O)c1)/C=C/c1cc2cc(O)c(O)cc2oc1=O` [compound 18, 6,7-Dihydroxy-3-(7-(3′,4′,5′-trihydroxyphenyl)-3,5-dioxohepta-1,6-dien-1-yl)coumarin], the inhibition at 100 µM was 55.7 ± 3.74% on hMAO-B [1] and 51.5 ± 3.45% at hMAO-A. Usually IC50 stands for the concentration that gives 50% inhibition. As for `O=C(/C=C(O)/C=C/c1cc(O)c(O)cc1O)/C=C/c1cc2cc(O)c(O)cc2oc1=O` [compound 16, 6,7-Dihydroxy-3-(7-(2′,4′,5′-trihydroxyphenyl)-3,5-dioxohepta-1,6-dien-1-yl)coumarin], at hMAO-B [2], the half-maximal inhibitory concentration (IC50) came to 26.2 ± 1.76 µM. The inhibition at 100 µM on hMAO-A worked out at 58.2 ± 3.9%. For `O=C(/C=C(O)/C=C/c1cc(O)c(O)c(O)c1)/C=C/c1cc2ccc(O)c(O)c2oc1=O` [compound 14, 7,8-Dihydroxy-3-(7-(3′,4′,5′-trihydroxyphenyl)-3,5-dioxohepta-1,6-dien-1-yl)coumarin], the inhibition at 100 µM at hMAO-A came to 54.3 ± 3.64%.

Values taken from paper PMC8348017 (Molecules, 2021).
